Results reported in a melting point compilation (Tetko et al.; mined from patent text by program, amines drawn as free bases though some values may be those of a salt).

Compared with CC1(C)C(=O)Nc2ccc(C3=NNC(=O)C4CC34)cc21 (stereo unspecified), COc1cc2c(c3c1OC(C)(C)C3)C(c1ccncc1)=NC(C)(C)C2 is lower in melting point: 334 to 335 °C for the first, 173 to 175 °C for the second.

First: COc1ccc2c(c1)OCC21C(=O)N(Cc2ccccn2)c2ccccc21 (stereo unspecified)
Second: CCCc1nc2ccccc2c(C(=O)O)c1Oc1ccc(-c2ccccc2C(N)=O)cc1
The melting point of the first is lower: 122 to 123 °C for the first, 230 °C for the second.

First: CCCCc1cc2ccccc2c(Oc2ccc(/C=C/C(=O)O)cc2)c1-c1ccc(OC)cc1
Second: CN(C)CCCOc1ccc(-c2nnc(-c3ccc(-c4ccccc4)cc3)o2)cc1
The melting point of the first is higher: 186 to 187 °C for the first, 130 to 132 °C for the second.

First: Oc1cccc(CCc2nc(-c3ccsc3)c(-c3ccsc3)o2)c1
Second: CCOCCOc1cccc2oc(-c3cccs3)cc(=O)c12
The melting point of the first is higher: 144 to 145 °C for the first, 111 to 113 °C for the second.

First: Cc1ccnc(C)c1O
Second: CCC(=O)c1ccc(=O)[nH]c1CC
The melting point of the first is lower: 105 to 106 °C for the first, 138 to 140 °C for the second.

First: Fc1cc2c(cc1Cl)C(Cl)Cc1ccccc1S2 (stereo unspecified)
Second: Cc1ccc(Cl)c(Nc2ccccc2C=C2SC(=N)NC2=O)c1Cl
The melting point of the first is lower: 94 to 96 °C for the first, 235 to 238 °C for the second.

First: O=c1c2ccccc2ccc2ccc(I)cc12
Second: O=c1nc(-c2cccc(CO)n2)sc2ccccc12
The melting point of the first is lower: 97.5 to 99 °C for the first, 208 to 209 °C for the second.

First: O=C(Nc1ccc(-n2ccnc2)cc1)NC12CC3CC(CC(C3)C1)C2
Second: CCOC(=O)c1ccc2c(c1)C=C(n1ccnc1)CC2
The melting point of the first is higher: 272 to 276 °C for the first, 113 to 116 °C for the second.

First: COC(=O)C=C(C)c1ccc(CCNCC(O)c2ccccc2)cc1 (stereo unspecified)
Second: CCOC(=O)/C(CC(=O)O)=C(\c1ccc(Cl)cc1)c1ccc(S(C)(=O)=O)cc1
The melting point of the first is higher: 120 to 125 °C for the first, 40 to 42 °C for the second.

First: CC(C)CC(=O)Nc1cccc(-c2ccnc3c(-c4cccc(C#N)c4)cnn23)c1
Second: COC(=O)c1cccc(C2C(C#N)=C(N)Oc3c2ccc2ncccc32)c1 (stereo unspecified)
The melting point of the first is lower: 166 to 167 °C for the first, 203 to 206 °C for the second.

First: O=C(CN1CCCCC1=O)N1CCC(C2c3ncc(Br)cc3CCc3cc(Cl)cc(Br)c32)CC1 (single isomer, unassigned; (+))
Second: CCOc1cc(C(=O)N2CCN(C(=O)C3=Cc4cc(OC)c(OC)cc4CCC3)CC2)cc(OCC)c1OCC
The melting point of the first is higher: 138 to 139 °C for the first, 125 to 126 °C for the second.

First: Cc1nc2ccc3cnc(N(C)c4cccc([N+](=O)[O-])c4)nc3c2s1
Second: Nc1nc2ccc3cc(Br)c([N+](=O)[O-])cc3c2c(=O)[nH]1
The melting point of the first is lower: 209 to 210 °C for the first, greater than 250 °C for the second.

First: CCC(=O)c1ccc(C(=O)CC)cc1
Second: CCOC(=O)CC(=O)C=Cc1ccccc1
The melting point of the first is higher: 98 to 101 °C for the first, 49 °C for the second.

Compared with Cn1cnnc1SCCCCCN1CCN(c2cccc(C(F)(F)F)c2)CC1, CCOc1cc2c(C)c(CCN3CCN(c4ccccc4)CC3)c(=O)oc2cc1OC is higher in melting point: 70 to 76 °C for the first, 164 to 165 °C for the second.

Compared with O=c1c2c(Cc3cccc(OC(F)(F)F)c3)n[nH]c2c2cccnc2n1-c1cccc(OC(F)(F)F)c1, Cn1c(C(F)(F)F)c(-c2ccc(C[C@H](NC(=O)c3c(F)cccc3C(F)(F)F)C(=O)O)cc2)c(=O)n(C)c1=O is lower in melting point: 174 to 177 °C for the first, 122 to 125 °C for the second.

First: CC(C)(C)OC(=O)N1CCN(C(=O)/C=C/c2ccc(Sc3ccc4c(c3)OCCO4)c([N+](=O)[O-])c2)CC1
Second: Cc1cc(C#N)ccc1N1CCN(C(=O)OC(C)(C)C)CC1
The melting point of the first is higher: 165 to 167 °C for the first, 127 to 131 °C for the second.

First: CC(C)S(=O)(=O)n1c(N)nc2ccc(C(=CBr)c3ccccc3)cc21
Second: CC(C)n1c(=O)nc(-c2ccccc2)c2ccc(CO)cc21
The melting point of the first is lower: 180 to 182 °C for the first, 223 to 225 °C for the second.

Compared with CC(=O)Nc1nc(CO)c(Cl)s1, CCNc1nc(C)c(C(=O)c2ccc(Cl)c([N+](=O)[O-])c2)s1 is higher in melting point: 145 to 146 °C for the first, 195 °C for the second.

First: CCN(CC)S(=O)(=O)c1ccccc1S(=O)(=O)NC(=O)Nc1nc(C)cc(OC)n1
Second: COc1ccccc(N(C)S(=O)(=O)c2ccc(C)cc2)c1=O
The melting point of the first is higher: 170 to 172 °C for the first, 94.5 °C for the second.

Compared with O=C1OCc2c1cc1ccc3c(c1c2-c1ccc(F)cc1)OCO3, CC(C)n1c(=O)nc(-c2ccc3c(c2)OCO3)c2cc3c(cc21)OCCO3 is higher in melting point: 215 to 218 °C for the first, 229 to 231 °C for the second.

First: CN1CCCC1CCOc1ccccc1CCc1cccc(C#N)c1 (stereo unspecified)
Second: COc1cccc(-c2cc3ccc(C#N)cc3o2)c1
The melting point of the first is lower: 101 to 102 °C for the first, 148 to 150 °C for the second.

First: O=C(N[C@H](Cc1ccc(C(F)(F)F)cc1)[C@@H](O)c1ccc(F)cc1)c1cccc2c1C(=O)c1ccccc1-2 (racemic)
Second: Cc1nc(-n2ccn(CCc3ccc(F)cc3)c2=O)sc1C(=O)NCc1cccnc1
The melting point of the first is higher: 185 to 186 °C for the first, 160 to 162 °C for the second.

First: CCC(=Cc1ccc(N(C)C)cc1Cl)[N+](=O)[O-]
Second: CN(C)CCNC(=O)[C@H]1C[C@H](NC(=O)Nc2ccccc2)c2c(Cl)cc(Cl)cc2N1 (relative stereo)
The melting point of the first is lower: 90 to 91 °C for the first, 223 to 224 °C for the second.

Compared with NC(=O)N1CCC(c2nn(-c3ccccc3)c3cc(F)ccc23)CC1, O=Cc1sc2ccccc2c1-c1ccccc1 is lower in melting point: 149 to 151 °C for the first, 86 to 89 °C for the second.

Compared with CC(C)(C)OC(=O)NCc1cccc(C#N)n1, CCNC(=O)CC1CN=C(c2cc3cc(Oc4ccc(COC)nc4)cc(OC)c3[nH]2)S1 (stereo unspecified) is higher in melting point: 85.9 to 86.5 °C for the first, 130 to 132 °C for the second.

First: O=C1C[C@@H](O)C[C@H](/C=C/c2ccccc2)O1 (relative stereo)
Second: O=C1CS[C@@H]2[C@H](NC(=O)Cc3ccccc3)C(=O)N2C1
The melting point of the first is lower: 94 to 95 °C for the first, 183 °C for the second.

First: CC(C1OCCO1)N(C)C(=O)Nc1nnc(S(=O)(=O)N(C)C)s1 (stereo unspecified)
Second: CCCN(CCC)C1COc2cccc(C(=O)C3CC3)c2C1 (stereo unspecified)
The melting point of the first is higher: 194 to 196 °C for the first, 100 to 102 °C for the second.

First: CC(Sc1nnnn1-c1ccccc1)C(=C(C#N)C#N)c1ccccc1 (stereo unspecified)
Second: CCN(CC)Cc1nnc2n1-c1ccc(Cl)cc1C(c1ccccc1)=NC2
The melting point of the first is higher: 145 to 146 °C for the first, 130 to 132 °C for the second.

First: OCC1OC(n2cnc3cncnc32)CC1F (stereo unspecified)
Second: COc1c(C#N)c2cc(Cl)c(Cl)cc2n1C1OC(CO)C(O)C1O (stereo unspecified)
The melting point of the first is lower: 89 °C for the first, 245 to 246 °C for the second.

Going from O=C(Nc1ccc(N2CCOCC2=O)cc1)[C@H]1C=CCN1C(=O)Nc1ccc(Cl)cc1 to COc1ccc(S(=O)(=O)C2(C(=O)O)CCN(Cc3ccc(OCCN4CCCCC4)cc3)CC2)cc1, the melting point falls from 245 °C to 114 °C.

First: CCOC(=O)c1nc(-c2c(Cl)cc(C(F)(F)F)cc2Cl)[nH]c1C#N
Second: Cn1nnnc1CN1CCC[C@@H](OCc2cc(C(F)(F)F)cc(C(F)(F)F)c2)[C@H]1c1ccccc1 (relative stereo)
The melting point of the first is higher: 180 to 181 °C for the first, 75 to 77 °C for the second.

Compared with CN1Cc2c(-c3noc(CN)n3)ncn2-c2ccccc2C1=O, CC1Cc2cc3c(cc2C(c2ccc([N+](=O)[O-])cc2)=NN1C(=S)Cl)OCO3 (stereo unspecified) is lower in melting point: 192 to 195 °C for the first, 187 to 188 °C for the second.

OCc1cc(Br)cc(I)c1 and Nc1c(F)c(Cc2ccc(F)cc2)nc(C=O)c1Cl cannot be ordered by melting point: 110 to 112 °C for the first, 109 to 111 °C for the second.

First: O=C1C2CCN(CC2)C1Cc1cccnc1 (stereo unspecified)
Second: O=C1NCCN1C1CCN(CCC2CS(=O)c3ccccc3O2)CC1 (stereo unspecified)
The melting point of the first is lower: 95 °C for the first, 145 °C for the second.

Compared with [N-]=[N+]=NCCCn1ccc(-c2ccc(F)cc2)c1-c1ccncc1, CSc1noc(-c2ccc(OCCOc3ccc(C)cc3)cc2)c1C#N is lower in melting point: 219 to 222 °C for the first, 139 to 140 °C for the second.

CCCCCCCCCCCCCCCCCNC(=O)Oc1cccc(N)c1 gave a melting point of 69 to 75 °C.
